Laboratory results reported in ChEMBL document CHEMBL1201862, “PubChem BioAssay data set” (2004).
Each block holds one compound with its values, some of them ahead of it. The source made the active and inactive calls.

What was measured:
[1] = target: Cyclin-dependent kinase 5/CDK5 activator 1 (Homo sapiens, UniProt Q00535); assay: blockade of human CDK5 activity – biochemical, cherry-picked samples, set 2, dose response (AID 504545)
Caspase-6 = target: T1, Caspase-6 (Homo sapiens, UniProt P55212); assay: inhibition of CASP6 peptide cleavage – biochemical, VEID-R110 fluorescence, cherry-pick, dose response (AID 720632)
T1 sequence (P55212 whole entry): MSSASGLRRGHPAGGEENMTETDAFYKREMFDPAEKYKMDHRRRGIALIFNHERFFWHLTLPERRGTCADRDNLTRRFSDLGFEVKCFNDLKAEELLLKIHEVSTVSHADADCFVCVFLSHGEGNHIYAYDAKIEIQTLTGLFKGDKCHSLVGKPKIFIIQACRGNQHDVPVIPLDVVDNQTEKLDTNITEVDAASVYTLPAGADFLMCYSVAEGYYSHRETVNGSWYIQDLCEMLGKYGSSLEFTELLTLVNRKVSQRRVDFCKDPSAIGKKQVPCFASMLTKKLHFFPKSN

[2] = PAX8-dependent cell viability loss – plate reader, dry powder, dose response (AID 743049); type: functional, cell-based
[3] = inhibitors acting on PAX2 in cells – cell-based, plate reader, dry powder samples, selectivity assay for PAX8 inhibitor project, dose response (AID 743048); type: functional;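 also: HEK293 cells carrying a WT1 promoter luciferase reporter driven by expressed Pax2; potency is for inhibition of Pax2 driven reporter signal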
Paired box protein Pax-8 = Paired box protein Pax-8 (Homo sapiens, UniProt Q06710); assay: PAX8 transcriptional activity inhibition in RMG-I – RMG-I cells, luciferase, cherry-pick, dose response (AID 687027); type: functional, cell-based;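 also: luciferase reporter driven by Pax8 target thyroperoxidase promoter measured by SteadyGlo luminescence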
Chain of Paired box protein Pax-8 (Q06710 whole entry): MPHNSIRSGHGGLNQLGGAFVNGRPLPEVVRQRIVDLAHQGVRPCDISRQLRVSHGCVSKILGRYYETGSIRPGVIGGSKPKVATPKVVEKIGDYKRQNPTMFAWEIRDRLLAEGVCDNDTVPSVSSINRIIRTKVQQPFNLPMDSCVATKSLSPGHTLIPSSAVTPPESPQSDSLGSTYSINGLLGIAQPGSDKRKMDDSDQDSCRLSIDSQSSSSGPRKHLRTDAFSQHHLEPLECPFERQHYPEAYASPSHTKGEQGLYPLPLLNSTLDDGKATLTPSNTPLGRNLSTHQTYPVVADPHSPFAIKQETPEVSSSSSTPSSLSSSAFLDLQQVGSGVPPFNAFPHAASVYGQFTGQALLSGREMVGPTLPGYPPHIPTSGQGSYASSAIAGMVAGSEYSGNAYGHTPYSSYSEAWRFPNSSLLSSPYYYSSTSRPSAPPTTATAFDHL

[4] = COV362 cell viability loss – plate reader, dry powder, SA12, cytotoxicity control for PAX8 inhibitor project, dose response (AID 743144); type: functional, cell-based
[5] = PAX5 cellular inhibition readout – cell-based, plate reader, dry powder samples, selectivity assay for PAX8 inhibitor project, dose response (AID 743047); type: functional;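 also: HEK293 cells carrying a Pax5 driven CD19 promoter luciferase reporter; potency of inhibitors that lower reporter luminescence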
[6] = OV-90 cell viability loss – plate reader, dry powder, SA8, PAX8 inhibitor project, dose response (AID 743149); type: functional, cell-based
[7] = cytotoxicity toward Colo320 cells – cell-based, CellTiter-Glo luminescence, IC50, dose response (AID 1117334); type: functional; settings: COLO 320
[8] = cytotoxicity toward HT-29 cells – cell-based, CellTiter-Glo luminescence, IC50, dose response (AID 1117330); type: functional
[9] = RKO cell viability reduction, dose response, CellTiter-Glo luminescence (AID 1117322); type: functional
[10] = cytotoxicity toward HCT116 cells – cell-based, CellTiter-Glo luminescence, IC50, dose response (AID 1117332); type: functional; settings: HCT-116
[11] = Reduced DLD-1 viability, concentration-response, CellTiter-Glo luminescence (AID 1117352); type: functional
[12] = SNU-C1 cell viability reduction, dose response, CellTiter-Glo luminescence (AID 1117323); type: functional, cell-based
[13] = CellTiter-Glo luminescence survival assay, SW480 colon tumor line, concentration-response curve, half-maximal inhibitory concentration (AID 1117338); type: functional
[14] = general cell-killing toxicity readout – plate reader, dry powder samples, cytotoxicity control for PAX8 inhibitor project, dose response (AID 743021); type: functional, cell-based
[15] = target: T2, DNA repair protein RAD52 homolog (Homo sapiens, UniProt P43351); type: functional, biochemical
T2 sequence (P43351 whole entry): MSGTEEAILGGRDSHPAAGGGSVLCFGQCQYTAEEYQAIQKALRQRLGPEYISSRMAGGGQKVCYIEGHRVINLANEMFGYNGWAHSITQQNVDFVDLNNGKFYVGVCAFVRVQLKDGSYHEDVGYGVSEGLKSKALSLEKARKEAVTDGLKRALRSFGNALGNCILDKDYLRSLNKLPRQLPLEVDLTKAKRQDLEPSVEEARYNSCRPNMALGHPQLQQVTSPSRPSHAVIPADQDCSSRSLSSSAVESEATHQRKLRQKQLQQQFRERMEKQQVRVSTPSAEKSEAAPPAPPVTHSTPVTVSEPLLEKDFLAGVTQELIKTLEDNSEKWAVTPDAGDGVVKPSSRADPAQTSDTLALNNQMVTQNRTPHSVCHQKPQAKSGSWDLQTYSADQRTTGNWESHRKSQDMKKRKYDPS

Melanocortin receptor 4 = Melanocortin receptor 4 (Homo sapiens, UniProt P32245); type: functional, cell-based;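 also: Cell-based assay with luminescence read-out, confirmatory dose-response testing for agonist activity of biased ligands at MC4R; human U2OS cells with tagged receptor and beta-arrestin; potency of agonists that increase receptor coupling to beta-arrestin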
Chain of Melanocortin receptor 4 (P32245 whole entry): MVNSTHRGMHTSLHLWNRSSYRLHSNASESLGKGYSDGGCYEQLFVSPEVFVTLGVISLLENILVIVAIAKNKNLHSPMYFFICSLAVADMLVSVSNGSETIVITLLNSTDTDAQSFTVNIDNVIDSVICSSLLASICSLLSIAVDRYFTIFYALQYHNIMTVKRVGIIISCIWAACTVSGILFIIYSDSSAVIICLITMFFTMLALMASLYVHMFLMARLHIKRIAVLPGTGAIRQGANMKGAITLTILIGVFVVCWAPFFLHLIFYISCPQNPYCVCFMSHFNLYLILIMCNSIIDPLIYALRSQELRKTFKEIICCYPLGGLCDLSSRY

Prothrombin = Prothrombin (Homo sapiens, UniProt P00734); assay: Thrombin 1536 HTS Dose Response Confirmation. [Related pubchem assays: 1046 (Thrombin 1536 HTS; hits were confirmed in this assay)]; type: functional
[16] = inhibition of ADAM10 peptide cleavage – biochemical, FRET peptide substrate, recombinant human ADAM10, selectivity assay for ADAM17 exosite inhibitor project, dose response (AID 743259);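 also: ADAM10 enzyme cleaving a FRET peptide substrate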
[17] = target: Disintegrin and metalloproteinase domain-containing protein 17 (Homo sapiens, UniProt P78536); assay: exosite inhibitors of ADAM17, dose response, biochemical (AID 743260)
Chain of Disintegrin and metalloproteinase domain-containing protein 17 (P78536 whole entry, the tested form may be a part): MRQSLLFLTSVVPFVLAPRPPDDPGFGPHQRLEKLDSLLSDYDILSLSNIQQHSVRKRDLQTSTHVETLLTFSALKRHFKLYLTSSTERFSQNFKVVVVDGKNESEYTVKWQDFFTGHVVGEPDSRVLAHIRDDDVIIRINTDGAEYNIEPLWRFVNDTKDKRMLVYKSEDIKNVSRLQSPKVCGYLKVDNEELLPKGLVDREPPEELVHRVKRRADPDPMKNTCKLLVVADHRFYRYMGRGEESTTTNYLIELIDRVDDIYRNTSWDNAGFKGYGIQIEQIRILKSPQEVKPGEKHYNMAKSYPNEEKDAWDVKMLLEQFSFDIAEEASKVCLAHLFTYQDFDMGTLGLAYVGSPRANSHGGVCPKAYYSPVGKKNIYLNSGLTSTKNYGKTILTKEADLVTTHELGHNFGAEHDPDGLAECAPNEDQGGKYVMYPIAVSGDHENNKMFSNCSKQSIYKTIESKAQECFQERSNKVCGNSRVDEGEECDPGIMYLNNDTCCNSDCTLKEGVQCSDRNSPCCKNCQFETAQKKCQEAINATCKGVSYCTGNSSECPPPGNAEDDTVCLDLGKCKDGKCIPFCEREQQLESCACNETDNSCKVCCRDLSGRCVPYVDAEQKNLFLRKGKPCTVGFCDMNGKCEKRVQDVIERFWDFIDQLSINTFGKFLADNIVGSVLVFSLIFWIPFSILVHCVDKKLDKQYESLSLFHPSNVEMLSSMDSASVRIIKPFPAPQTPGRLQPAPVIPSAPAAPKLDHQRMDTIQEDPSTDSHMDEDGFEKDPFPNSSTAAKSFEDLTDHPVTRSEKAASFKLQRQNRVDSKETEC

Hexokinase HKDC1 = target: T3, Hexokinase HKDC1 (Homo sapiens, UniProt Q2TB90); assay: inhibition of HKDC1 glucose phosphorylation – biochemical, W721R variant, dose response (AID 504729); type: functional
T3 sequence (Q2TB90 whole entry): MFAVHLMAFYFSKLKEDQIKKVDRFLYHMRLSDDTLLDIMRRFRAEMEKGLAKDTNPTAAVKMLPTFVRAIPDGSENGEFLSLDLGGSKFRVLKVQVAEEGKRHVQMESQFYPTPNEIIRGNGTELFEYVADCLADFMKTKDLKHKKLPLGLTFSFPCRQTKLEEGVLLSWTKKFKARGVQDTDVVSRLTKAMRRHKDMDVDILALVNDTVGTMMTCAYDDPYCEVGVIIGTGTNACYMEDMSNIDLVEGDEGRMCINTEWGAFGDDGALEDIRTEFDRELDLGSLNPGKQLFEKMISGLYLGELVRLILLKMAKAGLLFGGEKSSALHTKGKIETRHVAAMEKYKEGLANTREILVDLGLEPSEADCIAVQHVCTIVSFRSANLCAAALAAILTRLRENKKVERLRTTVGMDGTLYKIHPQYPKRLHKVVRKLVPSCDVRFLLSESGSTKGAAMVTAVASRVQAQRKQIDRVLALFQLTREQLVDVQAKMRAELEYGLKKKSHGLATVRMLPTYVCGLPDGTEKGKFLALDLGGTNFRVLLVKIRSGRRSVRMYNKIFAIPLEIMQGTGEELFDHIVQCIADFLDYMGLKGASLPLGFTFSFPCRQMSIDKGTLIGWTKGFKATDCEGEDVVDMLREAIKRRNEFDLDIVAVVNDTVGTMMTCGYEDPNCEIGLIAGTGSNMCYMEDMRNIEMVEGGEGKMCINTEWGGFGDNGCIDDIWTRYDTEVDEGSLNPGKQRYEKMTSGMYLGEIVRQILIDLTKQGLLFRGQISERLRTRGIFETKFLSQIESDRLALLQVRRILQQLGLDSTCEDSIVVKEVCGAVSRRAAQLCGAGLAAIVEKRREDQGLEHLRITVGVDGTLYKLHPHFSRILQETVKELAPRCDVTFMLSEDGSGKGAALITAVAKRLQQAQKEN

[18] = HPDE-C7 pancreatic duct cell viability loss – fluorescence, HTS (AID 430); type: functional, cell-based; settings: Homo sapiens
[19] = viability loss of HPDE-C7K cells – cell-based, fluorescence, HTS, primary screen (AID 431); type: functional; settings: Homo sapiens
[20] = target: T4, Oxysterols receptor LXR-beta (Homo sapiens, UniProt P55055); assay: LXR agonists, Gal4 luciferase reporter, dose response, counter-screen for ssDAF-12 agonist project, cell-based, luminescence, HEK293, S. stercoralis campaign (AID 720737); type: functional; settings: read-out: IC50 (the source's name)
T4 sequence (P55055 whole entry): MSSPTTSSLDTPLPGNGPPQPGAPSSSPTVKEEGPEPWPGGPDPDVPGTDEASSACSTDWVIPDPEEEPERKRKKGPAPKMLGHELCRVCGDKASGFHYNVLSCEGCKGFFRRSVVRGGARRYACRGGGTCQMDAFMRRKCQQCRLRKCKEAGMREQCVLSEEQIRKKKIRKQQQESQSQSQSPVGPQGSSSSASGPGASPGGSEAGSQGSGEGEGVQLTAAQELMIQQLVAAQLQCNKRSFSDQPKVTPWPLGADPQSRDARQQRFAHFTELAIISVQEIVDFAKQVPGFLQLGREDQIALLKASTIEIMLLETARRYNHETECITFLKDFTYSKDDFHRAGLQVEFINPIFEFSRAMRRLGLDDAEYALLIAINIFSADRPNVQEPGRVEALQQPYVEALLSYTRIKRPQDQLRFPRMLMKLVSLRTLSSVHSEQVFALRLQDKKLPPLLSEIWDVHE

[21] = Luminescence-based cell-based high throughput dose response assay to identify activators of the DAF-12 from the parasite S. stercoralis (ssDAF-12).; type: functional

Chain of Cyclin-dependent kinase 5/CDK5 activator 1 (Q00535 whole entry): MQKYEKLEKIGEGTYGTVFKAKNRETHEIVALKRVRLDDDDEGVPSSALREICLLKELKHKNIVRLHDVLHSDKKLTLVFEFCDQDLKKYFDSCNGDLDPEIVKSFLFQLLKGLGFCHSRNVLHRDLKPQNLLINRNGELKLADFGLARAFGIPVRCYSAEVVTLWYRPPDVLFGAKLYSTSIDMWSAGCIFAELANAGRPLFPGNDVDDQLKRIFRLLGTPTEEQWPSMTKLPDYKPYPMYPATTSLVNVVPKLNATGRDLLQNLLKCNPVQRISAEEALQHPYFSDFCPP
Chain of Cyclin-dependent kinase 5/CDK5 activator 1 (Q15078 whole entry, further chain): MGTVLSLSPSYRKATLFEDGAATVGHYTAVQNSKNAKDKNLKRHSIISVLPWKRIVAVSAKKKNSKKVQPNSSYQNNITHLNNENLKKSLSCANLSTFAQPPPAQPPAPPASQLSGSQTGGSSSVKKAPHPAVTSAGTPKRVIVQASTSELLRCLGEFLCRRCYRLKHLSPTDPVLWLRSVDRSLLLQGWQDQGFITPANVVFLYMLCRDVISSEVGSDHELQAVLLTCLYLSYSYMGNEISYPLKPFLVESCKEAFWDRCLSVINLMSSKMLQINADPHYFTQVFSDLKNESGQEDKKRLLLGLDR

AC50 [1]: 27.6 µM (active)
Structure (SMILES): O=C(Cc1ccc(O)cc1)NCCN=C(S)NCc1ccccc1

AC50 (Caspase-6): 20.1 µM (active)
Structure (SMILES): COc1ccc(CCN2CC(C(=O)NCCc3ccc(C)cc3)CC2=O)cc1OC (configuration not stated)

IC50 (Prothrombin): > 50 µM (not active)
Structure (SMILES): COc1ccc(C2CC(c3ccccc3)=NN2C(=O)CN2CCN(Cc3ccccc3)CC2)cc1 (configuration not stated)

IC50 [17]: > 69.5 µM (inactive)
Structure (SMILES): CCc1ccc(NC(=O)CO/N=C(\C)c2cc3ccccc3o2)cc1
IC50 [16]: > 69.5 µM (inactive)

The next lines start with the compound.

Structure (SMILES): COc1cccc(C#Cc2ccc([C@H]3[C@@H](C#N)N(C(=O)c4ccccn4)[C@@H]3CO)cc2)c1
AC50 [2]: 47.3 µM (active) | AC50 [3]: 14.1 µM (active) | AC50 (Paired box protein Pax-8): 15 µM (active) | AC50 [4]: 43.7 µM (active) | AC50 [5]: 15.2 µM (active) | AC50 [6]: > 70 µM (inactive)

Structure (SMILES): CC(C)=CC1C(C(=O)OCN2C(=O)C3=C(CCCC3)C2=O)C1(C)C (configuration not stated) [TETRAMETHRIN]
IC50 [7]: > 20 µM (inactive) | IC50 [8]: > 20 µM (inactive) | IC50 [9]: > 20 µM (inactive) | IC50 [10]: > 20 µM (inactive) | IC50 [11]: > 20 µM (inactive) | IC50 [12]: > 20 µM (inactive) | IC50 [13]: > 20 µM (inactive)

Structure (SMILES): CN(C)CCNC(=O)c1cccc(-c2cnc3c(NC=O)cc(-c4cccc(C(F)(F)F)c4)cn23)c1
AC50 [14]: 54.8 µM (active) | AC50 [15]: 2.4 µM (active) | AC50 (Paired box protein Pax-8): 9.07 µM (active) | EC50 (Melanocortin receptor 4): > 89.2 µM (inactive)

Structure (SMILES): O=Cc1[nH]c2ccccc2c1N(C(=O)CCl)c1ccccc1
IC50 (Hexokinase HKDC1): 43.4 µM (inactive)

Structure (SMILES): Cc1ccc2nc(-c3ccccc3)cc(O)c2c1
EC50 [18]: 0.91 µM (active) | EC50 [19]: 1.14 µM (active) | EC50 [20]: > 67.5 µM (inactive) | IC50 [21]: > 67.5 µM (inactive)
